Measurements reported in publication PMC11959706, “Allatostatin-C signaling in the crab Carcinus maenas is implicated in the ecdysis program” (The Journal of Experimental Biology, 2025).
Values joined by “and” are separate entries in the source; they are usually repeats but may differ in a detail not shown here. Equal values may be shown once. Bridge positions count the residues as written; N and C are the ends. Ends that are not written are not given here.

Legend:
AST-CR(d) = assay: Aequorin luminescence receptor assay, AST-CR(d) construct in control cells expressing a Gq subunit; assay type: cell-based, Carcinus maenas; details: CHO-K1-Aeq control cells expressing a Gq subunit, transfected with AST-CR(d) construct
Experimental: Chinese hamster ovary (CHO-K1) cells containing stably expressed apoaequorin (Perkin Elmer, Boston, MA) and either Gα16 or Gq subunit (control cells) were cultured in Dulbecco's Modified Eagle Medium (DMEM) F-12 Nutrient Mixture Glutamax (Gibco®) supplemented with 10% fetal bovine serum (Gibco®). Cells were maintained in vented T75 flasks at 37°C in 5% CO2. Cells grown in a monolayer to approximately 60% confluency were transfected with pcDNA 3.1 constructs using FugeneHD® (Promega) according to the manufacturer's recommendations. Transfection medium was prepared by combining 800 µl Opti-MEM® (Gibco) with 10 µg vector and the cells further incubated overnight. […] Cell suspensions were gently stirred and injected (50 µl per well) using a Mithras LB 940 microplate reader (Berthold Technologies, Bad Wildbad, Germany) and light emission (Ca^2+ response recorded for 30 s). Cells were then lysed by injection of 50 µl per well 0.3% Triton-X in BSA medium, and light emission recorded for a further 10 s to measure total Ca^2+ response. […] Data were analyzed using Mikrowin 2010 v5 (Mikrotek Laborsysteme, Overath, Germany) and SigmaPlot v15 (Systat Software, Grafiti, Slough, UK).

Y-organs = assay: Y-organ in vitro bioassay of ecdysteroid synthesis (ecdysteroid RIA); assay type: cell-based, Carcinus maenas; details: 100 nmol l^−1, 24 h incubation; N=3–6
Experimental: To determine the possible activity of AST-C and/or AST-CC on ecdysteroid synthesis, Y-organs (YOs) were dissected from ice-anaesthetized crabs and used in the in vitro bioassay as detailed previously ([Webster, 1986]). Following 24 h incubations, culture medium was aspirated and snap frozen in liquid nitrogen prior to ecdysteroid RIA. YOs were sonicated in PBS, centrifuged (13,000 g for 5 min at room temperature) and assayed for protein concentration using a BCA protein kit (EMD Millipore, Burlington MA, USA). Protein concentrations (BSA standards) were used to normalize ecdysteroid synthesis between YO pairs.
Ecdysteroid RIAs were performed on 20 µl aliquots of culture medium using the following conditions: 100 μl 1:2000 anti-ecdysteroid serum HB-2E (a kind gift from R. D Watson, Alabama University), 100 µl H^−3 Ponasterone A [24, 25, 26, 27-3H (N), 3.5 TBq mmol^−1 (American Radiochemical Company, St Louis, MO, USA)] at 28,000 dpm per tube. 25-Deoxyecdysone (a kind gift from Prof. R. Lafont, Sorbonne University, Paris) was used as a standard (range 2500–19.5 pg per tube), and unknowns and standards were assayed in triplicate. Bound was separated from free using 50 µl per tube immobilized donkey anti-rabbit nitrocellulose suspension (Sac-Cel), as detailed for the AST-C RIA. Pellets were resuspended in 600 µl Hi-Safe 3 (Perkin Elmer) prior to counting. Using this RIA, both ecdysone and 25-deoxyecdysone (the two ecdysteroids synthesized by C. maenas YOs) were equally recognized.

AST-CRd (TR71151) = assay: Aequorin luminescence receptor assay, CHO-K1-Aeq-Gα16 cells transiently expressing AST-CRd; assay type: cell-based, Carcinus maenas; details: for Activation of AST-CRd at saturating doses: 10, 1 µmol l^−1 peptide, quadruplicate
Description: The transcriptome of neural tissue of C. maenas, which has been previously assembled ([Oliphant et al., 2018]), identified four putative AST-C receptor candidates: TR71151a-d ([Oliphant et al., 2018]). These were chemically synthesized with a modified 5′ Kozak sequence (GAATTCGCCACC) and cloned in frame into a pcDNA3.1(+) plasmid vector (Genscript, Piscataway, NJ, USA). Separate aliquots of OneShot TOP10® E. coli cells (Invitrogen, Paisley, UK) were transformed with the plasmids and grown on LB plates containing 100 µg ml^−1 ampicillin overnight at 37°C. Positive clones were cultured overnight in LB broth with 100 µg ml^−1 ampicillin at 37°C and plasmids extracted using a Qiagen Plasmid Midiprep kit according to the manufacturer's instructions. Purified plasmids were re-sequenced (MWG Eurofins, Ebersberg, Germany) and analyzed using Geneious 9.1.8 ([Kearse et al., 2012]).
Chinese hamster ovary (CHO-K1) cells containing stably expressed apoaequorin (Perkin Elmer, Boston, MA) and either Gα16 or Gq subunit (control cells) were cultured in Dulbecco's Modified Eagle Medium (DMEM) F-12 Nutrient Mixture Glutamax (Gibco®) supplemented with 10% fetal bovine serum (Gibco®). Cells were maintained in vented T75 flasks at 37°C in 5% CO2. Cells grown in a monolayer to approximately 60% confluency were transfected with pcDNA 3.1 constructs using FugeneHD® (Promega) according to the manufacturer's recommendations. Transfection medium was prepared by combining 800 µl Opti-MEM® (Gibco) with 10 µg vector and the cells further incubated overnight. Cells were detached from the culture flask by incubating for 10 min in 5 ml 0.2% EDTA in PBS, washed in 10 ml clear DMEM–F-12 containing L-glutamine and 15 mmol l^−1 HEPES, centrifuged (for 5 min at 260 g) and resuspended at a concentration of 5×10^6 cells ml^−1 in 0.2 µm filtered BSA medium (DMEM–F-12 containing L-glutamine, 15 mmol l^−1 HEPES and 0.1% BSA). Coelenterazine h (Invitrogen, Paisley, UK) was added to give a concentration of 5 µmol l^−1, and the cells incubated in the dark at room temperature with gentle rocking. Before the assay, cells were further diluted (10-fold) and incubated for 60 min before use. Dried aliquots of peptides were reconstituted in BSA medium, and 50 µl added in quadruplicate to a white 96-well plate (Optiplate®, Perkin Elmer). Cell suspensions were gently stirred and injected (50 µl per well) using a Mithras LB 940 microplate reader (Berthold Technologies, Bad Wildbad, Germany) and light emission (Ca^2+ response recorded for 30 s). Cells were then lysed by injection of 50 µl per well 0.3% Triton-X in BSA medium, and light emission recorded for a further 10 s to measure total Ca^2+ response. BSA medium was used for blank measurements (six replicates per plate) and transfection with empty vectors was used for negative controls. Data were analyzed using Mikrowin 2010 v5 (Mikrotek Laborsysteme, Overath, Germany) and SigmaPlot v15 (Systat Software, Grafiti, Slough, UK).

[1] = test system: semi-isolated heart preparations; assay: Semi-isolated heart preparation bioassay; parameters: species or system Carcinus maenas; details: 10^−6 mol l^−1 in saline, 20°C, recorded about 2 min; four preparations
Description: To determine possible myotropic and/or myoinhbitory activity of AST-C, AST-CC and AST-CCC, inter-molt crabs (∼65 mm carapace width) were ice-anaesthetized and rapidly decerebrated before removing all limbs and the dorsal carapace to expose the heart and pericardial cavity. The preparation was then fitted into a bowl lined with tissue, to provide a stable saline-flooded environment. The heart was connected to a force transducer (MLT0210/A) via a micro-fishing hook (size 28) and fine nylon (0.08 mm) monofilament. Connection to a PC with Chart 4.0 software was via a Bridge Pod (ML301) and Powerlab 4/20 (AD Instruments, Castle Hill, NSW, Australia). Transducer gain was set at maximum sensitivity (200 μV). Heart preparations were initially perfused with Carcinus physiological saline ([Saver et al., 1999]) at room temperature (20°C). Once a stable output was achieved, hearts were then perfused by sequentially adding approximately 2 ml saline containing AST-C, AST-CC and AST-CCC (GenScript Biotech, Piscataway, NJ, USA), and finally adding CCAP as a positive control (all peptides were at a concentration of 10^−6 mol l^−1 in saline). Each peptide addition was followed by extensive washout with saline, recording heart rate and beat amplitude for approximately 2 min after application of each peptide.

heart = details: H. americanus; often seen, the converse in some individuals; ref Dickinson et al., 2018; cited from earlier work

Row | Substance | Luminescent response in control cells (AST-CR(d)) | Effect on ecdysteroid synthesis by Y-organs (Y-organs) | Activation of AST-CRd at saturating doses (AST-CRd (TR71151)) | ED50, luminescence response (AST-CRd (TR71151); CHO-K1-Aeq-Gα16 cells transiently expressing AST-CRd, assayed in quadruplicate, two independent experiments, approximate values) | Effect on heartbeat amplitude [1] | Effect on heartbeat frequency (heart rate) [1] | Effect on heart rate (heart)
1 | GNGDGRLYWRCYFNAVSCF (disulfide 11-18 (inferred)) [AST-CC, C. maenas AST-C family neuropeptide; synthetic (GenScript)] | no luminescent response | entirely without effect | equally active | 2 nmol/L and 2 to 6 nmol/L | entirely unaffected | entirely unaffected | decrease in amplitude and frequency of heart rate
2 | pQIRYHQCYFNPISCF (disulfide) [AST-C, allatostatin-C, C. maenas AST-C family neuropeptide with C-terminal PISCF motif; synthetic (GenScript)] | no luminescent response | entirely without effect | equally active | – | entirely unaffected | entirely unaffected | decrease in amplitude and frequency of heart rate
